Molecules are shown by their SMILES.

Holding throughout (format): in vivo, mouse
Experiment [1] deals with Hamp mRNA. The experiment is described as follows: Liver Hamp mRNA by qRT-PCR in Bmp6-/- males treated with gefitinib. The following applies: 7 w.o. Bmp6-/- males. On the procedure: (§1) Bmp6 null mice (Bmp^6mlRob) obtained from E. Robertson and wild-type controls on a CD1 background were sacrificed at 7, 12, or 30 weeks of age. Liver, spleen, heart, pancreas and kidney samples were dissected for RNA isolation, flash frozen in liquid nitrogen and stored at −80° C. Hamp-deficient mice were kindly provided by S. Vaulont. They were derived on a C57BL/6 background in the lab of T. Ganz. Gonadectomies and sham operations were performed under anesthesia at 4 weeks of age. Testosterone (10 mg/kg; Sigma) was suspended in corn oil and a total volume of 60 μL per mouse was injected sc everyday for a week. To investigate the role of erythropoiesis in the down-regulation of hepcidin by testosterone, Bmp6−/− females were whole-body irradiated with a sublethal dose of 60Co (6 Gy) on day 1, administered daily doses of testosterone (1 μg/g) starting on day 2, and sacrificed on day 8. To investigate the effect of EGF signaling on testosterone-induced hepcidin down-regulation, the selective EGFR inhibitor Gefitinib (Iressa) was stirred into 1% Tween 80 and administered orally daily from days −1 to 7 to Bmp6−/− males (200 mg/kg; Euromedex). Mice were housed under controlled lighting and temperature conditions, fed a chow of normal iron content (250 mg iron/kg; SAFE, Augy, France) ad libidum, and were fasted for 14 h before they were killed. Experimental protocols were approved by the Midi-Pyrenees Animal Ethics Committee.
(§2) Total RNA from mouse liver was extracted using Trizol (Invitrogen). cDNA was synthesized using MMLV-RT (Promega). The sequences of the primers for target genes and the reference gene Hprt are listed in supplemental Table 1. Quantitative PCR reactions were prepared with LightCycler 480 DNA SYBR Green I Master reaction mix (Roche Diagnostics, Mannheim, Germany) and run in duplicate on a LightCycler 480 Instrument (Roche Diagnostics).
(§3) Data were first normalized to the invariant control Hprt and, for each sample and each target gene, −ΔCt=−[Ct target gene−Ct Hprt] was calculated. Because the numerical value of Ct is inversely related to the amount of amplicon in the reaction, the higher the −ΔCt value, the greater the amount of target amplicon. Values shown are means±SEM. Target gene expression in an individual is proportional to 2^−ΔCt. However, individual expression values are usually shown on a log scale and, because log 2 (2^−ΔCt)[…], −ΔCt data rather than 2^−ΔCt data are plotted on the y-axes. An increase of 1 on the y-axis thus corresponds to a 2-fold increase in target gene expression. ΔCt data are the observed values from experimental procedures and it is recommended that ΔCt data rather 2−ΔCt data be the subject of statistical analysis (41). […]

Experiment [2] concerns C-terminal phospho-Smad2. The experiment is described as follows: C-terminal phospho-Smad2 immunoblot of liver extracts, gonadectomized Bmp6-/- females treated with testosterone. The following applies: administration of testosterone to Bmp6-/- females. On the procedure:
as §1, with “Mice were housed under controlled lighting and temperature conditions, fed a chow of normal iron content (250 mg iron/kg; SAFE, Augy, France) ad libidum, and were fasted for 14 h before they were killed. Experimental protocols were approved by the Midi-Pyrenees Animal Ethics Committee.” left out
(§4) Livers were homogeneized in a FastPrep®-24 Instrument (MP Biomedicals) for 15 sec at 4 m/s. […] Liver proteins were quantified using a protein assay kit (Bio-Rad). […]

In experiment [3] the test system is C-terminal phospho-Smad5. As to the kind of experiment: C-terminal phospho-Smad5 immunoblot of liver extracts, gonadectomized Bmp6-/- females treated with testosterone. The note with it: administration of testosterone to Bmp6-/- females. The method, then: as §1, with “Mice were housed under controlled lighting and temperature conditions, fed a chow of normal iron content (250 mg iron/kg; SAFE, Augy, France) ad libidum, and were fasted for 14 h before they were killed. Experimental protocols were approved by the Midi-Pyrenees Animal Ethics Committee.” left out
as §4
Background: Immunoblotting shows a protein as a band on a membrane.

Experiment [4] has as its system Hepcidin (Hamp) mRNA. The experiment is described as follows: Liver hepcidin (Hamp) mRNA by qRT-PCR after testosterone administration to ovariectomized Bmp6-/- mice.
Experiment [5] concerns Egfr mRNA. As to the kind of experiment: Liver Egfr mRNA by qRT-PCR after testosterone administration to gonadectomized Bmp6-/- females. The method, then: as §1, §2, §3
(Quantitative PCR measures a nucleic acid by following its amplification.)

Where [6] appears, read: gefitinib 200 mg/kg orally daily for 7 days.
[7] abbreviates: non-irradiated 7 w.o. ovariectomized Bmp6-/- mice, testosterone propionate 10 mg/kg sc daily for 7 days.
Where [8] appears, read: whole-body irradiated ovariectomized Bmp6-/- mice, daily testosterone days 2 to 8.
Setting [9] is: gonadectomized Bmp6-/- females, testosterone for a week.

`COc1cc2ncnc(Nc3ccc(F)c(Cl)c3)c2cc1OCCCN1CCOCC1` [gefitinib, 4-quinazolinamine, N-(3-chloro-4-fluorophenyl)-7-methoxy-6-[3-(4-morpholinyl)propoxy]-(9CI)]: in experiment [1] (setting [6]), the “Hamp mRNA -ΔΔCt (gefitinib vs vehicule)” value amounted to 2.76 and the “Hamp mRNA mean -ΔCt (Ct Hprt - Ct Hamp)” value is listed as 4.02. Also, the “Hamp expression on average higher than in mice treated with vehicule” value in experiment [1] (gefitinib 200 mg/kg orally daily for 7 days, liver mRNA) was 6.8 fold. In experiment [1] (gefitinib daily for 7 days), the “Effect on Hamp mRNA levels (in words)” value is listed as “significant induction of Hamp mRNA levels”.

Regarding `CCC(=O)O[C@H]1CC[C@H]2[C@@H]3CCC4=CC(=O)CC[C@]4(C)[C@H]3CC[C@]12C` [testosterone, testosterone propionate], the “C-terminal Smad2 phosphorylation in liver (in words)” value in experiment [2] is on record as “increased”. The “C-terminal Smad phosphorylation (Smad5) in liver (in words)” value in experiment [3] is listed as “reduced”. For the same compound, the “Effect on hepcidin expression in irradiated mice (in words)” value in experiment [4] (irradiated ovariectomized Bmp6-/- females, testosterone propionate 10 mg/kg days 2 to 8) is “downregulation of hepcidin expression to levels similar to those observed in non irradiated control mice”. Besides, in experiment [4] (setting [7]), the “Hamp mRNA -ΔΔCt (testosterone vs vehicule)” value is −3.95 and the “Hamp mRNA mean -ΔCt (Ct Hprt - Ct Hamp)” value was determined as 1.27. Also, the “Hepcidin expression repressed on average (vs vehicule)” value in experiment [4] (non-irradiated 7 w.o. ovariectomized Bmp6-/- mice, testosterone propionate 10 mg/kg sc daily for 7 days, liver mRNA) came to 15.4 fold. Besides, the “Hepcidin expression reduced on average (vs vehicule)” value in experiment [4] (whole-body irradiated (60Co, 6 Gy) ovariectomized Bmp6-/- mice, daily testosterone days 2 to 8) is given as 16.3 fold. In experiment [4] (setting [8]), the “Hamp mRNA -ΔΔCt (testosterone vs vehicule)” value is −4.03 and the “Hamp mRNA mean -ΔCt (Ct Hprt - Ct Hamp)” value is 0.81. Moreover, in experiment [5] (setting [9]), the “Egfr mRNA -ΔΔCt (testosterone vs vehicule)” value is on record as 1.72 and the “Egfr mRNA mean -ΔCt (Ct Hprt - Ct Egfr)” value came to 0.88. Also, the “Egfr expression increased on average (vs vehicule)” value in experiment [5] (gonadectomized Bmp6-/- females, testosterone for a week, liver mRNA) is 3.3 fold. The “Effect on liver Egfr expression (in words)” value in experiment [5] (ovariectomized Bmp6-/- females treated with testosterone for a week) is “induced”.

The values are drawn from US20160051556A1, “Method and Pharmaceutical Composition for use in the Treatment of Chronic Liver Diseases Associated with a Low Hepcidin Expression” (INSERM (INSTITUT NATIONAL DE LA SANTÉ ET DE LA RECHERCHE …, priority 2013, published 2016).
